Experimental data published in patent US20220380574A1, “DUAL-FUNCTION MELT ADDITIVES” (3M INNOVATIVE PROPERTIES COMPANY, priority 2019, published 2022).

Tested on: S. aureus ATCC 6538
Experiment: Modified AATCC Method 100, antibacterial activity of nonwoven BMF webs (viable cell count after 24 hrs)
Type: cell-based
Conditions: statement in words on the additive in electret webs
Text: Besides the charge-enhancing properties, the charge-enhancing additives also provide anti-microbial properties. Antimicrobials are agents that kill microorganisms or stops their growth. Antimicrobials work at a cellular level to continually disrupt and prevent the growth of microorganisms. By creating an inhospitable environment for microorganisms like bacteria, mold and mildew, antimicrobials protect everyday products like countertops, toys, surface coatings, textiles and hospital equipment. The antimicrobial activity of the current charge-enhancing additives in electret webs can be measured in a variety of different ways. One particularly suitable measurement technique is the standard test method of “Modified AATCC Method 100—Assessment of Antibacterial Finishes on Textile Materials” was used for the nonwoven webs performance test. This method is used to evaluate the antibacterial activity of textile products treated with antibacterial finish, which is suitable for nonwoven hydrophobic fabric webs. Details of the test method are provided in the Examples section, below. The standard test method of “Modified AATCC Method 100—Assessment of Antibacterial Finishes on Textile Materials” was used for the nonwoven webs performance test. […] Viable cell count of S. Aureus ATCC 6538 on BMF web after 24 hrs were measured.

c1ccc(-c2nc3ccccc3[nH]2)cc1 [CA-4, 2-Phenylbenzimidazole]
combination of charge-enhancing and anti-microbial properties: do not have this combination of properties
